Columns and labels:
Type in all cases: biochemical
PAK3 = PAK3 (Homo sapiens, UniProt O75914); assay: Z'Lyte fluorescence-based (FRET) PAK kinase assay, PAK3; conditions: 100 μM ATP
Procedure: (§1) A fluorescence-based assay format is used to determine IC50 values of test compounds in vitro. Purified PAK kinase is incubated with ATP, and a test compound at various concentrations and a substrate peptide containing two fluorophores. In a second step, the reaction mix is incubated with a site-specific protease that cleaves non-phosphorylated bat not phosphorylated substrate peptide, disrupting the FRET signal generated by the two fluorophores in the cleaved peptide (Z′Lyte™ Kinase assay platform; Life Technologies).
(§2) Reagents: 50 mM HEPES, pH 7.5; 0.01% BRIJ-35; 10 nM MgCl1; 1 mM EGTA, 2 uM substrate peptide Ser/Thr20 (proprietary Life Technologies Sequence), PAK enzyme [2.42-30.8 ng for PAK1, 0.29-6 ng for PAK2, 1.5-20 ng for PAK3 and 0.1-0.86 ng for PAK4; actual enzyme amounts depend on lot activity of the enzyme preparation]
(§3) Test compounds are dissolved in DMSO at various concentrations; the final DMSO concentration in the assay reaction is 1%.
(§4) ATP concentration at Kin apparent is used in the assay [50 ┌M ATP for PAK1 assay, 75 ┌M ATP for PAK2 assay, 100 μM ATP for PAK3 assay, 5 μM ATP for PAK4 assay] in a total assay volume of 10 μl. Assay reactions are incubated at room temperature for 1 hr. Following the kinase reaction, 5 μl of 1:256 dilution of development solution A (Life Technologies) is added and the reaction mix is incubated for an additional 1 hr at room temperature.
(§5) Plates are analyzed in a standard fluorescence plate reader (Tecan or equivalent) using an excitation wavelength of 400 nn and emission wavelengths of 445 nm and 520 nm.
(§6) Inhibition of kinase reaction is determined by emission ratio=emission@445 nm/emission@520 nm
as §1, with “non-phosphorylated but” for “non-phosphorylated bat”, “peptide (Z'Lyte™” for “peptide (Z′Lyte™”, “assay platform” for “assay platform;”
as §2, with “mM MgCl2;” for “nM MgCl1;”
as §4, with “at Km” for “at Kin”, “[50 μMATP” for “[50 ┌M ATP”, “75 µM” for “75 ┌M”, “[…]” for “10 μl.”, “kinase reaction.” for “kinase reaction,”, “[…]” for “5 μl”
(§7) Plates are analyzed in a standard fluorescence plate reader (Teem or equivalent) using an excitation wavelength of 400 nm and emission wavelengths of 445 nm and 520 nm.

PAK2 = PAK2 (Homo sapiens, UniProt Q13177); assay: Z'Lyte fluorescence-based (FRET) PAK kinase assay, PAK2
Sequence of PAK2 (Q13177 whole entry): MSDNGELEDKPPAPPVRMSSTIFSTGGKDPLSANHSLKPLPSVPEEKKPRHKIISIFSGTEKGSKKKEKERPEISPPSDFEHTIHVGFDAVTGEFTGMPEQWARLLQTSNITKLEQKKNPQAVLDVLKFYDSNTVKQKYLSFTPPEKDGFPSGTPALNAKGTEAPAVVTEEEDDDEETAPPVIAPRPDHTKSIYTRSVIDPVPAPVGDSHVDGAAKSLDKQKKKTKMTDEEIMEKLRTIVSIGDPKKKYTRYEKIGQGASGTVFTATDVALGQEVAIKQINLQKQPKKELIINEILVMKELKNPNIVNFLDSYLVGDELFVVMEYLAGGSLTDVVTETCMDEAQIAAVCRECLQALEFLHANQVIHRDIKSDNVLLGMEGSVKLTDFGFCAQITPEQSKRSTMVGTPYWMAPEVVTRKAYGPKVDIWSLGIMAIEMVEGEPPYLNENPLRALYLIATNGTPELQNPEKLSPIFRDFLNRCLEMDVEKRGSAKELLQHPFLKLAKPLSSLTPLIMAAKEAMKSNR
Procedure: as §1, §2, §3, §4, §5, §6
as §1, with “non-phosphorylated but” for “non-phosphorylated bat”, “peptide (Z'Lyte™” for “peptide (Z′Lyte™”, “assay platform” for “assay platform;”
as §2, with “mM MgCl2;” for “nM MgCl1;”
as §4, with “at Km” for “at Kin”, “[50 μMATP” for “[50 ┌M ATP”, “75 µM” for “75 ┌M”, “[…]” for “10 μl.”, “kinase reaction.” for “kinase reaction,”, “[…]” for “5 μl”
as §7

PAK4 = PAK4 (Homo sapiens, UniProt O96013); assay: Z'Lyte fluorescence-based (FRET) PAK kinase assay, PAK4; conditions: 5 μM ATP
Sequence of PAK4 (O96013 whole entry): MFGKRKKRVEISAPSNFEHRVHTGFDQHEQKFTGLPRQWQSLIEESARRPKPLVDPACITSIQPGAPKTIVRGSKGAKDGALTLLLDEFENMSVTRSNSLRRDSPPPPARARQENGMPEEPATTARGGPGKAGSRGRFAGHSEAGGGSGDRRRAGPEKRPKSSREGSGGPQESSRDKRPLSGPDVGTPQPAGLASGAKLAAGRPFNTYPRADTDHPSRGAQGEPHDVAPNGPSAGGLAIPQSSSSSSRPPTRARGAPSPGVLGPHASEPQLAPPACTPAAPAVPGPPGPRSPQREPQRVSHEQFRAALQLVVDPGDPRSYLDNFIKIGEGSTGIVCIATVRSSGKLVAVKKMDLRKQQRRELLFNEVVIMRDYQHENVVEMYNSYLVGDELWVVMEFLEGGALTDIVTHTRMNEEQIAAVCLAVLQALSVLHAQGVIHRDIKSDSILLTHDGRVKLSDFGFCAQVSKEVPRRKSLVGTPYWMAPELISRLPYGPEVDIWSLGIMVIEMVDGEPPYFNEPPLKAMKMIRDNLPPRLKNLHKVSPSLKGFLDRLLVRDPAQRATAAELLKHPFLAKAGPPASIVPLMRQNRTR
Procedure: as §1, §2, §3, §4, §5, §6
as §1, with “non-phosphorylated but” for “non-phosphorylated bat”, “peptide (Z'Lyte™” for “peptide (Z′Lyte™”, “assay platform” for “assay platform;”
as §2, with “mM MgCl2;” for “nM MgCl1;”
as §4, with “at Km” for “at Kin”, “[50 μMATP” for “[50 ┌M ATP”, “75 µM” for “75 ┌M”, “[…]” for “10 μl.”, “kinase reaction.” for “kinase reaction,”, “[…]” for “5 μl”
as §7

PAK1 = PAK1 (Homo sapiens, UniProt Q13153); assay: Z'Lyte fluorescence-based (FRET) PAK kinase assay, PAK1; conditions: 50 μM ATP
Sequence of PAK1 (Q13153 whole entry): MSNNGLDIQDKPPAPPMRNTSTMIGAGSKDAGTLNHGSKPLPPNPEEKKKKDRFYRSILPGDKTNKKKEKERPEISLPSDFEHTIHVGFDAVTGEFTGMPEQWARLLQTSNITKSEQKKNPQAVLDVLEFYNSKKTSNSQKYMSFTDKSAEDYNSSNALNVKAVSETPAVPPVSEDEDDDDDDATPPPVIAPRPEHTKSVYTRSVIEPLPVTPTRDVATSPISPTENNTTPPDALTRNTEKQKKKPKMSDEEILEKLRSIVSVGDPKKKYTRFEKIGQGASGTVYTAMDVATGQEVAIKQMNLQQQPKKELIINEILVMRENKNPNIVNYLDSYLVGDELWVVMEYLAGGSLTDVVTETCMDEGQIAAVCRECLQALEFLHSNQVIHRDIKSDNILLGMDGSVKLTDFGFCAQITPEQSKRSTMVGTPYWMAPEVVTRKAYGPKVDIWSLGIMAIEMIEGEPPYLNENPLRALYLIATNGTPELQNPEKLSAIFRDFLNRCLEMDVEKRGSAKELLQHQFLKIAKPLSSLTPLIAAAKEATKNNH
Procedure: as §1, §2, §3, §4, §5, §6
as §1, with “non-phosphorylated but” for “non-phosphorylated bat”, “peptide (Z'Lyte™” for “peptide (Z′Lyte™”, “assay platform” for “assay platform;”
as §2, with “mM MgCl2;” for “nM MgCl1;”
as §4, with “at Km” for “at Kin”, “[50 μMATP” for “[50 ┌M ATP”, “75 µM” for “75 ┌M”, “[…]” for “10 μl.”, “kinase reaction.” for “kinase reaction,”, “[…]” for “5 μl”
as §7

[1] = Table 1 of Example 29 (own compound numbering)
[2] = Table 1 of Example 29 (own compound numbering), 75 µM ATP
[3] = Table 1 of Example 100, 75 μM ATP

Sequence of PAK3 (O75914 whole entry): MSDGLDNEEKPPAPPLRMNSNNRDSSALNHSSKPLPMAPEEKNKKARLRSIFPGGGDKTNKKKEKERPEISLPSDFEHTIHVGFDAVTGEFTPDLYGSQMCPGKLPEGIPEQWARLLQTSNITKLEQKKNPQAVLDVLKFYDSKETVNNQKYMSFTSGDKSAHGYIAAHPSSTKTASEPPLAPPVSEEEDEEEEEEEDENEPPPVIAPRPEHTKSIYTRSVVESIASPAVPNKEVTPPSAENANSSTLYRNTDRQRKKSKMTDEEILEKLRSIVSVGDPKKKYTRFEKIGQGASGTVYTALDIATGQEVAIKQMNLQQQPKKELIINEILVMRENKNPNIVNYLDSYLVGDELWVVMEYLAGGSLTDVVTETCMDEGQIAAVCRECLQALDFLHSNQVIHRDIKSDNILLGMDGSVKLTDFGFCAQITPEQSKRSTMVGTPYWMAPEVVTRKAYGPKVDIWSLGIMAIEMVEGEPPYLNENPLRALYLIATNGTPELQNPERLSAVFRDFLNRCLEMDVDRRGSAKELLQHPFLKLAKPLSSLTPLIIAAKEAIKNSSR

Row | Structure (SMILES) | IC50 (PAK3; [1]) [nM] | IC50 (PAK2; [2]) [nM] | IC50 (PAK4; [1]) [nM] | IC50 (PAK1; [1]) [nM] | IC50 (PAK3; Table 1 of Example 100) [nM] | IC50 (PAK2; [3]) [nM] | IC50 (PAK4; Table 1 of Example 100) [nM] | IC50 (PAK1; Table 1 of Example 100) [nM]
1 | CC(c1ccccc1)n1c(=O)ccc2cnc(Nc3ccc(N4CCN(C)CC4)cc3)nc21 (stereo not shown) [Compound 102] | > 10000 | 1000 to 10000 | 1000 to 10000 | 1000 to 10000 | – | – | – | –
2 | CSc1cccc(F)c1Cn1c(=O)ccc2cnc(Nc3ccc(N4CCN(C)CC4)cc3)nc21 [Compound 138] | < 1000 | – | < 1000 | < 1000 | – | – | – | –
3 | CN1CCN(c2ccc(Nc3ncc4ccc(=O)n(CCc5ccccc5)c4n3)cc2)CC1 [Compound 103] | 1000 to 10000 | < 1000 | < 1000 | < 1000 | – | – | – | –
4 | CN1CCN(c2ccc(Nc3ncc4ccc(=O)n(Cc5ccccc5C(F)(F)F)c4n3)cc2)CC1 [Compound 42] | – | – | – | – | < 1000 | < 1000 | < 1000 | < 1000
5 | CN1CCN(c2ccc(Nc3ncc4ccc(=O)n(CCc5ccccc5)c4n3)cc2)CC1 [Compound 49] | – | – | – | – | 1000 to 10000 | < 1000 | < 1000 | < 1000
6 | O=c1ccc2cnc(Nc3ccc(N4CCNCC4)c(F)c3)nc2n1C1Cc2ccccc2C1 [Compound 21] | – | – | – | – | 1000 to 10000 | < 1000 | < 1000 | < 1000
7 | Cc1cc(Nc2nccc(-c3ccc(NCCN)nc3)n2)ccc1N1CCN(C)CC1 [compound 83] | – | – | – | – | 1000 to 10000 | – | < 1000 | < 1000
8 | Cc1cc(Nc2nccc(-c3ccc(NCCN)nc3)n2)ccc1N1CCN(C)CC1 [Compound 152] | 1000 to 10000 | – | < 1000 | < 1000 | – | – | – | –
9 | CN1CCN(c2ccc(Nc3ncc4ccc(=O)n(Cc5c(F)cccc5C(F)(F)F)c4n3)cc2)CC1 [Compound 112] | < 1000 | – | < 1000 | < 1000 | – | – | – | –
10 | CSc1cccc(F)c1Cn1c(=O)ccc2cnc(Nc3ccc(N4CCN(C)CC4)cc3)nc21 [compound 99] | – | – | – | – | < 1000 | – | < 1000 | < 1000
11 | O=c1ccc2cnc(Nc3ccc(N4CCNCC4)c(F)c3)nc2n1Cc1c(Cl)cccc1C1CC1 [Compound 137] | < 1000 | – | 1000 to 10000 | < 1000 | – | – | – | –
12 | CN1CCN(c2ccc(Nc3ncc4ccc(=O)n(Cc5ccccc5OC(F)(F)F)c4n3)cc2)CC1 [compound 97] | < 1000 | – | < 1000 | – | – | – | – | –
13 | O=c1c(-c2ccccc2)cc2cnc(Nc3ccc(N4CCNCC4)cc3)nc2n1Cc1ccccc1C(F)(F)F [Compound 163] | < 1000 | – | 1000 to 10000 | < 1000 | – | – | – | –
14 | O=c1ccc2cnc(Nc3ccc(N4CCOCC4)cc3)nc2n1C1CCCC1 [Compound 2] | – | – | – | – | – | > 10000 | 1000 to 10000 | > 10000
15 | O=c1c(-c2ccccc2)cc2cnc(Nc3ccc(N4CCNCC4)cc3)nc2n1Cc1ccccc1C(F)(F)F [compound 94] | – | – | – | – | < 1000 | – | 1000 to 10000 | < 1000
16 | CN1CCN(c2ccc(Nc3ncc4ccc(=O)n(Cc5cccnc5)c4n3)cc2)CC1 [Compound 38] | – | – | – | – | – | > 10000 | > 10000 | 1000 to 10000
17 | Cc1ccccc1Cn1c(=O)ccc2cnc(Nc3ccc(N4CCN(C)CC4)cc3)nc21 [Compound 39] | – | – | – | – | – | < 1000 | 1000 to 10000 | < 1000
18 | CN1CCN(c2ccc(Nc3ncc4ccc(=O)n(Cc5ccccc5Cl)c4n3)cc2)CC1 [Compound 31] | – | – | – | – | – | < 1000 | 1000 to 10000 | < 1000
19 | CN1CCN(c2ccc(Nc3nccc(-c4ccc(O)nc4)n3)cc2)CC1 [Compound 143] | – | > 10000 | > 10000 | 1000 to 10000 | – | – | – | –
20 | CN1CCN(c2ccc(Nc3ncc4ccc(=O)n(Cc5ccncc5)c4n3)cc2)CC1 [Compound 37] | – | – | – | – | – | > 10000 | > 10000 | 1000 to 10000
21 | CN(C)c1ccc(Nc2ncc3ccc(=O)n(C4CCCC4)c3n2)cc1 [Compound 3] | – | – | – | – | – | > 10000 | 1000 to 10000 | > 10000
22 | CN1CCN(c2ccc(Nc3ncc4ccc(=O)n(Cc5c(F)cccc5C(F)(F)F)c4n3)cc2)CC1 [compound 58] | – | – | – | – | < 1000 | – | < 1000 | < 1000
